Results on two compounds are retold here after PMC6941357, “An in vitro toolbox to accelerate anti-malarial drug discovery and development” (Malaria Journal, 2020).

Several values for one entry are separate records, joined by “and”; a condition that tells them apart may be missing. Equal values may be shown once. Read-outs that look alike come from different tables or passages of the source. Some results are limits rather than exact numbers.

Data set [1] is described as follows: Plasma protein binding via rapid equilibrium dialysis (RED), 10% plasma. The data set is classed as in vitro ADME, human. Conditions: human, 10% pooled plasma (diluted 1:10), pH 7.4, RED, 10% plasma corrected for dilution, 6 h dialysis. On the procedure:
(§1) Pooled human plasma (n = 3–4 donors) was obtained by centrifugation of blood (collected by the Australian Red Cross Blood Service, Melbourne, Australia or the Volunteer Blood Donor Registry, Clinical Translation Centre, Walter & Eliza Hall Institute of Medical Research, Parkville, Australia), or sourcing pooled plasma directly from commercial sources (Innovative Research Inc, MI) and stored frozen at − 80 °C.
Plasma was diluted 1:10 with pH 7.4 phosphate buffer (prepared by mixing 0.1 M sodium dihydrogen phosphate and 0.1 M disodium hydrogen phosphate (both containing 0.04 M NaCl) to pH 7.4) and spiked with compound to achieve a total measured concentration of ~ 1000–3000 ng/mL. Diluted plasma was vortex mixed briefly and aliquots (n = 3–4) were transferred to RED (Thermo Fisher Scientific, Waltham, MA) units that were placed at 37 °C under ambient atmosphere on a plate shaker. […] At the end of the dialysis period, samples were removed from both the donor and dialysate chambers of the RED units. […] Fraction unbound values were calculated for each individual RED unit and the mean and SD calculated for n = 3–4 replicates.
Briefly, the RED device was exposed for two 30 min periods and one overnight period to fresh solutions of compound prepared in pH 7.4 buffer at approximately 10% of the total dialysis concentration. Following the preincubations, solutions were removed from the RED device and discarded. […] Samples were removed and analysed as described above.
For binding assessments using 10% plasma, the unbound fraction (fu) in neat plasma was calculated using the average values for Ctotal and Cunbound and Eq.
(In general: In equilibrium dialysis free small molecules cross a membrane that holds back macromolecules.)

The next data set is described as follows: in vitro. The following applies: human, microsomes, pH 7.4, HLM CLint. On the procedure:
(§2) The metabolic stability assay was adapted from a previously published method. […] Reactions were quenched at 2, 5, 15, 30 and 60 min by the addition of acetonitrile containing 150 ng/mL diazepam as internal standard. Control samples (containing no cofactor) were included (quenched at 2, 30 and 60 min) to monitor degradation in the absence of cofactor. Concentrations were determined by LC–MS (Additional file 1: Table S2) by comparison to the response for a single point calibration standard prepared in quenched microsomal matrix.
(§3) Test compound concentration versus time data were fit using an exponential decay function to determine the first-order rate constant for substrate depletion. Where deviation from first-order kinetics was evident, only the initial linear portion of the logarithmic profile was utilized to determine the initial degradation rate constant (k, min^−1). Each substrate depletion rate constant was then used to calculate the in vitro intrinsic clearance value (CLint, in vitro, µL/min/mg protein) using Eq.
(§4) Unbound in vitro CLint values were obtained by dividing the measured CLint by the measured fu in microsomes.

The next data set concerns human liver microsomes. In words: in vitro. The following applies: human, 1 µM, pH 7.4. On the procedure:
as §2, §3, §4

Data set [2] in a line: Octanol/pH 7.4 buffer partition coefficient, shake flask. The following applies: octanol/pH 7.4 buffer. On the procedure: Partition coefficients between octanol and pH 7.4 buffer were measured using a shake flask method. A stock solution of test compound in octanol was prepared at a concentration between 3 and 30 mg/mL based on the expected partition coefficient value. This stock solution was then diluted 3- and 10-fold with octanol and used to prepare the octanol phase for the partitioning experiments. Two different dilutions were used to confirm that there were no saturation effects. Phosphate buffered saline was prepared by combining 67 mM disodium hydrogen orthophosphate and sodium dihydrogen orthophosphate (both prepared in 43 mM NaCl) to a final pH of 7.4.
Partitioning experiments were conducted by mixing equal volumes of the octanol (containing test compound) and aqueous phases and placing on a vibrating plate mixer in an incubator at 37 °C. […] An aliquot of the aqueous phase was carefully removed and centrifuged again to ensure no contamination from the octanol phase before sampling in duplicate and diluting with aqueous methanol for analysis. Diluted samples were analysed by LC–MS along with calibration standards (Additional file 1: Table S2) and partition coefficients were calculated from the ratio of the mean octanol to buffer concentration after accounting for the dilution factors. The partitioning results for the two time points were used to confirm that the partitioning experiment had reached equilibrium.

Data set [3] deals with Caco-2 cell monolayers. The following applies: cited from earlier work.
A further data set relates to human plasma. The following applies: methods UF, ED, EP or not described per compound, ref [6]–[22] of Additional file 1; cited from earlier work.
A short description of data set [4]: Ionization constants by potentiometric titration. Conditions: basic pKa (B), mean ± SD, n = 3 titrations. The data set is classed as physicochemical. On the procedure:
The autotitrator was controlled by Tiamo software (Version 1.3). pH measurements were conducted using a Metrohm LL Micro glass electrode which was calibrated on the day of use with calibration standards at pH 2, 4, 7 and 10. All reagents were standardized (directly or indirectly) against potassium hydrogen phthalate (Sigma-Aldrich, A.C.S. Acidimetric Standard). Titrant solutions were protected from carbon dioxide absorption by flushing with nitrogen before sealing or by the incorporation of a drying tube filled with self-indicating soda lime into the titration reaction vessel set-up.
Aliquots were introduced directly into the titration vessel and diluted 1:10 with water (typical final compound concentration of 0.5 mM).

The target of the next data set is CYP3A4 (Homo sapiens, UniProt P08684). In words: Cytochrome P450 inhibition in human liver microsomes. The following applies: highest concentration tested 20 µM. On the procedure:
The CYP inhibition assay was based on a previous publication with minor modifications. The method uses human liver microsomes and a substrate-specific interaction approach which relies on the formation of a metabolite that is mediated by a specific CYP isoform. The specific CYP-mediated metabolic pathways, substrates, substrate Km values, positive control inhibitors and specific incubation conditions are shown in Additional file 1: Table S4. […] Samples were quenched by the addition of ice-cold acetonitrile containing diazepam as the analytical internal standard. Concentrations of the substrate-specific metabolites in quenched samples were determined by LC–MS (Additional file 1: Table S5) relative to calibration standards prepared in quenched microsomal matrix.
The inhibitory effect of each test compound and positive control inhibitor was based on the reduction in the formation of the specific CYP-mediated metabolite (represented as percent inhibition of enzyme activity) relative to metabolite formation in the absence of inhibitor (i.e. control for maximal enzyme activity). […] The Km was determined under the same incubation conditions by measuring the rate of metabolite formation (pmol/min/mg protein) as a function of substrate concentration (Additional file 1: Table S4).

The nature of data set [5]: Binding to human liver microsomes via ultracentrifugation. The data set is classed as in vitro ADME. The following applies: human, liver microsomes, pH 7.4, 0.4 mg/mL protein, read-out: Fraction unbound, HLM. On the procedure: A suspension of human liver microsomes (HLM, XenoTech LLC, Lenexa, KS, USA) was prepared in 0.1 M phosphate buffer (pH 7.4) at a protein concentration of 0.4 mg/mL immediately prior to the experiment.
(§5) An ultracentrifugation method adapted from a previous publication was initially used to assess plasma protein binding and binding in the other media. […] Additional ultracentrifuge tubes containing spiked matrix were maintained at 37 °C, 5% or 10% CO2 or normal atmosphere conditions, with aliquots being taken within 0.5 h of the start and at the end of ultracentrifugation to serve as controls for the assessment of stability and to obtain a measure of the total concentration (Ctotal). Following ultracentrifugation, the pH was checked and an aliquot of protein-free supernate was taken from each ultracentrifuge tube for determination of the unbound concentration (Cunbound).
(§6) Total matrix and protein free samples were analysed using a matrix matching approach whereby each sample was mixed in a 1:1 ratio with the opposite blank medium (i.e. blank total matrix or blank protein free buffer). For example, plasma samples were mixed with blank pH 7.4 buffer whereas plasma supernatant samples were mixed with blank plasma. Each of the sample sets were then assayed against a common calibration curve prepared in a 1:1 mixture of total matrix and protein free pH 7.4 buffer. […] The standard deviation for fu was calculated using the propagation of errors approach as described previously. The potential for compound degradation was assessed by comparing the average value for Ctotal at the start and end of the experiment.

The target of data set [6] is T1, Albumax medium (lipid rich bovine serum albumin) (Bos taurus, UniProt P02769).
T1 construct: purchased Gibco, Thermo Fisher Scientific
T1 sequence (P02769 25-607): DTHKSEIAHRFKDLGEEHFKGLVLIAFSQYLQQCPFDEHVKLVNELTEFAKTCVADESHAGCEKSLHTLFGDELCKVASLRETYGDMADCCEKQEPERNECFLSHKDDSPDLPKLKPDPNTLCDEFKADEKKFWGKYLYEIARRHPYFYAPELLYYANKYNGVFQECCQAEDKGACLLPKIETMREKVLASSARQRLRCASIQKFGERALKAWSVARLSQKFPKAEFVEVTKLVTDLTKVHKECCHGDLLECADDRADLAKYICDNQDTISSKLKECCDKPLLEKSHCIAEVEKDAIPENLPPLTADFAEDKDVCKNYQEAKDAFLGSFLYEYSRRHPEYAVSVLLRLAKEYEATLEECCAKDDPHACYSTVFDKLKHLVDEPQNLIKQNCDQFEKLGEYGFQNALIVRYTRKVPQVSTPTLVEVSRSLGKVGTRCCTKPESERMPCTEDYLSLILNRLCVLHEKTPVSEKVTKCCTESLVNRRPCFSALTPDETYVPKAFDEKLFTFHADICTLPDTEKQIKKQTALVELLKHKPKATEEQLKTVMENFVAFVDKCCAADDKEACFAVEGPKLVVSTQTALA
In words: Binding in Albumax medium via ultracentrifugation. The following applies: bovine, Albumax medium, pH 7.4. The data set is classed as in vitro ADME. On the procedure: as §5, §6

Data set [7] can be described thus: Plasma protein binding via ultracentrifugation (UC). The data set is classed as in vitro ADME, human. Conditions: human, neat pooled plasma, pH 7.4; ultracentrifugation, neat plasma; read-out: Fraction unbound, human plasma. On the procedure: as §1, §5, §6
The nature of a further data set: physchem. An excerpt: Predicted Peff values were obtained from a calibration plot of literature Peff values vs measured Caco-2 Papp using either buffer or plasma as the transport medium (see Results section).
Data set [8] has as its system Caco-2 cell monolayers. The data set is described as follows: Bidirectional permeability across Caco-2 cell monolayers. The following applies: matrix: human plasma, corrected for fu. On the procedure:
Bidirectional permeability was assessed across Caco-2 cell monolayers as described previously. Briefly, permeability experiments were performed using either aqueous transport buffer (pH 7.4 Hanks balanced salt solution containing 20 mM HEPES) or human plasma (Australian Red Cross Blood Service) in both the apical and basolateral chambers. […] The final DMSO concentration in the donor solution was 0.1% v/v.
Samples from the donor chamber were taken at the start and end of the experiment. […] Donor and acceptor samples were stored frozen at − 80 °C until analysis by LC–MS (Additional file 1: Table S2) with sample preparation as described previously. The mass balance and apparent permeability coefficient (Papp) were calculated as previously described.
Where human plasma was used as the transport medium, Papp values were calculated as shown above, with correction for the fraction unbound (fu) in the donor solution Cdonorinitial×fu with fu determined at a similar concentration to that used in the transport experiment. The apparent flux of lucifer yellow was based on an endpoint measurement assuming no lag time. The efflux ratio was calculated as the ratio of the mean B–A to A–B Papp values.
A general note: Passage across Caco-2 layers is used to estimate intestinal permeability.

Data set [9] is described as follows: Solubility in biorelevant media. Conditions: 37 °C. On the procedure:
Solubility of each active pharmaceutical ingredient was evaluated at 37 °C in pH 7.4 phosphate buffered saline (prepared as described for the partitioning experiments), fasted (FaSSIF-V2) and fed (FeSSIF-V2) state simulated intestinal fluids and fasted state simulated gastric fluid (FaSSGF) as described by Jantratid et al.. […] Samples were vortexed and placed in a 37 °C incubator on an orbital mixer (IKA® VXR basic Vibrax® orbital mixer) set at 600 rpm. Sampling times were 1 h for FaSSGF or 5–6 h for FaSSIF-V2, FeSSIF-V2, and PBS. These times were used to reflect the maximal likely residence times within the stomach and small intestine, respectively. Sampling was carried out by centrifuging each sample at 10,000 rpm for 3 min, transferring 300 µL aliquots into fresh Eppendorf tubes and centrifuging these tubes again at 10,000 rpm for 3 min. Triplicate aliquots of the supernatant were then removed and diluted 1:2 in 50% aqueous methanol and then again in 50% aqueous acetonitrile to be within the analytical concentration range. Samples were analysed by LC–MS along with calibration standards (Additional file 1: Table S2).

[10] abbreviates: matrix: human plasma, corrected for fu.

Chain of CYP3A4 (P08684 whole entry, canonical isoform): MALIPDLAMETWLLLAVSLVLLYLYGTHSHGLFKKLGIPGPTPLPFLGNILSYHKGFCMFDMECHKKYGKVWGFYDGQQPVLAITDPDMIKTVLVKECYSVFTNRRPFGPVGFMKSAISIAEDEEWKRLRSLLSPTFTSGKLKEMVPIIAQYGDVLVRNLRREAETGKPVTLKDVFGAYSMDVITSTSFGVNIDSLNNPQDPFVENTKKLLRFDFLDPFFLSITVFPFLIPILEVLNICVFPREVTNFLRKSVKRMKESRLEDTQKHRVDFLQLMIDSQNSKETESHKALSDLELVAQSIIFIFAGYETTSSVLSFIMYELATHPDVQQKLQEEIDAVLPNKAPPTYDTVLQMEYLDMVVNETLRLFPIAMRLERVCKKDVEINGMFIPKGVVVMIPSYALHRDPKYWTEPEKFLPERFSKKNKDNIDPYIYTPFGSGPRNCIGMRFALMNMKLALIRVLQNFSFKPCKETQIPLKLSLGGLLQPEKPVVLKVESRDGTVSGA

In general, fraction unbound refers to the share of the substance not bound to proteins or other matrix. The term microsomal CLint denotes the rate of metabolic loss divided by the concentration. What is called logD is the decadic logarithm of the distribution of all forms, ionised or not, between an organic phase and buffer at a given pH. One may read the IC50 as the concentration needed to halve the response being measured. High values mean a need for much substance, low ones inhibition by little substance. Compound `CCN(CC)Cc1cc(Nc2ccnc3cc(Cl)ccc23)ccc1O` [Amodiaquine] returned a fraction unbound at 6 h in data set [1] of 0.086. Besides, the microsomal CLint at 1 µM in “in vitro” amounted to 308 µL/min/mg. In addition, in the data set on human liver microsomes, the “Unbound CLint” value is on record as 339 µL/min/mg. In data set [2] (pH 7.4), this compound displayed a logD of 2.95. Further, the “Literature ER” value in the data set with Caco-2 cell monolayers [3] (Caco-2, ref [33], [35] of Additional file 1) was 1.3. For the same compound, the “Literature Papp” value with Caco-2 cell monolayers [3] (Caco-2 A-B, ref [33]–[35] of Additional file 1) is reported as 16.0 ± 1.1 10-6 cm/sec. For the same compound, the “A–B Papp” value in the data set on Caco-2 cell monolayers [3] (setting [10]) is 90 ± 8.3 10^−6 cm/s. In addition, in the data set with Caco-2 cell monolayers [3] (setting [10]), the “B–A Papp” value is reported as 63 ± 9.6 10^−6 cm/s. Also, in the data set with human plasma, the Literature fu is under 0.1. For the same compound, the pKa in data set [4] (aqueous solution (DMSO stock diluted 1:10 with water), read-out: Measured pKa) amounted to 7 ± 0.02. Further, the IC50 on CYP3A4 (CYP3A4 (midaz) IC50, human liver microsomes, CYP3A4 (midaz)) was over 20 µM; on CYP3A4 (CYP3A4 (test) IC50, human liver microsomes, CYP3A4 (test)), over 20 µM. The fraction unbound at […] in [5] turned out to be 0.91 ± 0.094; in [7], 0.089 ± 0.008. Further, the fraction unbound at […], 500 ng/mL in data set [6] was 0.67 ± 0.033.
Consider `CC1(C)CC(O)(COc2ccc(C3CCC4(CC3)OOC3(O4)C4CC5CC(C4)CC3C5)cc2)CC(C)(C)N1` (stereo not drawn) [MMV052], for which the SLAD in “physchem” came to 7580 mg. In addition, in the data set “physchem” (Peff × tres/R, minimum 1), the “An (absorption number)” value was 13. For the same compound, the “Ssi (estimated solubility in the small intestine)” value in the data set “physchem” (based on measured FaSSIF solubility) was 1140 µg/mL. In addition, the “Predicted human Peff” value in “physchem” (from Caco-2 Papp via calibration plot) was 11 10^−4 cm/s. The “Measured Log D7.4” value in data set [2] (shake flask, 37 °C) was determined as 5.40. In the data set on Caco-2 cell monolayers [8], the “A–B Papp” value is given as > 300 10^−6 cm/s and the “B–A Papp” value is recorded as > 300 10^−6 cm/s. In addition, the “Measured pKa” value in data set [4] is on record as 8.3 ± 0.06 (B). Also, in data set [9], the “Solubility FaSSGF (1 h)” value was 13.0 µg/mL and 24.7 µM; the “Solubility FaSSIF-V2 (5–6 h)” value is 1140 µg/mL and 2170 µM; the “Solubility FeSSIF-V2 (5–6 h)” value is > 2000 µg/mL and > 3800 µM; the “Solubility PBS7.4 (5–6 h)” value is 49.6 µg/mL and 94.3 µM.
